Assay results taken from PubChem BioAssay (NCI).
“And” between values parts separate entries of the source, which are not always exact repeats. Equal entries are not always repeated.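 Where inhibition never reached the appropriate level, the endpoint shown equals the highest concentration tested. Otherwise, values were interpolated linearly from a five-concentration, 48-hour dose response in 96-well plates. At the GI50, growth is halved. TGI marks complete inhibition of growth.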

Tests used:
Test in all cases: DTP human tumour cell line panel, 48 h
786-0 renal = tested on: 786-0 renal
HCT-116 colon = tested on: HCT-116 colon
HOP-92 NSCLC = tested on: HOP-92 NSCLC
LOX IMVI melanoma = tested on: LOX IMVI melanoma
NCI-H23 lung = tested on: NCI-H23 lung
PC-3 prostate = tested on: PC-3 prostate
SF-539 CNS = tested on: SF-539 CNS
SNB-19 CNS = tested on: SNB-19 CNS
SR leukemia = tested on: SR leukemia
UO-31 renal = tested on: UO-31 renal

Compound	GI50 (786-0 renal)	TGI (786-0 renal)	GI50 (HCT-116 colon)	TGI (HCT-116 colon)	GI50 (HOP-92 NSCLC) [µM]	TGI (HOP-92 NSCLC)	GI50 (LOX IMVI melanoma) [µM]	TGI (LOX IMVI melanoma)	GI50 (NCI-H23 lung) [µM]	TGI (NCI-H23 lung)	GI50 (PC-3 prostate) [µM]	TGI (PC-3 prostate)	GI50 (SF-539 CNS) [µM]	TGI (SF-539 CNS)	GI50 (SNB-19 CNS) [µM]	TGI (SNB-19 CNS)	GI50 (SR leukemia)	TGI (SR leukemia)	GI50 (UO-31 renal)	TGI (UO-31 renal)
CCCCCSc1ccc2nc(NC(=O)OCC)sc2c1	0.541 µM	> 100 µM	0.466 µM	> 100 µM	1.44	67.8 µM	0.455	> 100 µM	1.15	> 100 µM	0.798	> 100 µM	0.4	4.77 µM	0.778	> 100 µM	0.274 µM	> 100 µM	1.39 µM	> 100 µM
COc1ccc(C2c3ccc4ccccc4c3Oc3ncn(CCCn4ccnc4)c(=N)c32)cc1OC (configuration not stated)	3.1 µM	11 µM	3.02 µM	11 µM	1.3	6.64 µM	1.88	3.7 µM	6.49	22.4 µM	3.23	12.9 µM	1.74	3.28 µM	11.2	26.7 µM	1.57 µM	4.15 µM	3.75 µM	16.1 µM
CC(=O)OCC1OC(SC2=N/C(=C\c3ccc(Br)s3)C(=O)N2c2ccccc2)C(OC(C)=O)C(OC(C)=O)C1OC(C)=O (configuration not stated)	17.8 µM and > 100 µM	55.4 µM and > 100 µM	25.5 µM and 61.2 µM	> 100 µM				> 100 µM		> 100 µM		> 100 µM				> 100 µM	35.6 µM and 9.68 µM	> 100 µM	71.4 µM and 32.7 µM	> 100 µM
CC(=O)O[C@@H]1c2c(c3c(=O)c4cccc(O)c4c(=O)c=3c2=[N+]=[N-])[C@H](OC(C)=O)[C@@H](OC(C)=O)[C@]1(C)O	0.221 µM	0.944 µM and 0.548 µM	0.271 µM	0.617 µM and 0.89 µM	0.172	1.84 µM and 0.355 µM		0.413 µM and 0.275 µM	0.411	1.77 µM and 1.59 µM	0.236	1.14 µM and 1 µM	0.162	1.14 µM and 0.316 µM	0.689	2.35 µM and 3.51 µM	0.0582 µM	0.37 µM and 0.36 µM	0.167 µM	1.19 µM and 0.352 µM
O=C1CN=C(c2ccc[nH]2)c2cc(Cl)ccc2N1	> 100 µM	> 100 µM	13 µM	> 100 µM	12.2	> 100 µM	17.9	> 100 µM	18.6	> 100 µM	93.4	> 100 µM	> 100	> 100 µM	> 100	> 100 µM	> 100 µM	> 100 µM	> 100 µM	> 100 µM
CCCCN(CCCC)P(=O)(Oc1ccccc1)Oc1ccccc1	12.3 µM	25.2 µM	3.39 µM	16.8 µM			12.9	26.5 µM	4.56	17.7 µM	3.79	17.6 µM	14	28.6 µM	8.82	23.5 µM	7.34 µM	68.5 µM		
CCCCCCCCCCCCCCCCn1cc[n+](C)c1	0.5 µM	1.91 µM	0.267 µM	1.22 µM	0.34	1.68 µM	0.412	1.64 µM	0.287	1.87 µM	0.183	0.58 µM	1.16	2.38 µM	0.705	2 µM	0.0742 µM	0.787 µM	1.04 µM	2.24 µM
CN1CCc2ccccc2C1Cc1ccccc1NC(=O)c1sc2ccccc2c1Cl (configuration not stated)		> 100 µM		> 100 µM		> 100 µM				> 100 µM		> 100 µM		> 100 µM		> 100 µM		> 100 µM		> 100 µM
COc1cc(OC)c(C(=O)/C=C/c2ccc(C#N)cc2)c(OC)c1	1.86 µM	6.88 µM	1.07 µM	3.82 µM	1.34	4.96 µM	1.37	5.47 µM	1.57	11.6 µM	1.72	6.87 µM	1.28	3.85 µM	1.84	6.87 µM	0.813 µM	> 50 µM	1.29 µM	6.26 µM
Oc1nc(N2CCOCC2)sc1/C=C1\C=Nc2ccccc21	> 100 µM	> 100 µM	> 100 µM	> 100 µM			> 100	> 100 µM	> 100	> 100 µM	> 100	> 100 µM	> 100	> 100 µM	> 100	> 100 µM	82 µM	> 100 µM	> 100 µM	> 100 µM
Cc1ccc(-c2cc(C(=O)Nc3ccc(S(=O)(=O)N4CCCCC4)cc3)[nH]n2)c(O)c1	> 100 µM	> 100 µM	> 100 µM	> 100 µM	> 100	> 100 µM	> 100	> 100 µM	> 100	> 100 µM	> 100	> 100 µM	> 100	> 100 µM	> 100	> 100 µM	22.3 µM	> 100 µM	> 100 µM	> 100 µM
Cc1[nH]c2ccccc2c1CO	24.5 µM	64.8 µM	15.2 µM	28.5 µM	14.6	40.9 µM			18.6	46 µM	17	43.7 µM	18.8	39.9 µM	39.3	> 100 µM	25.1 µM	> 100 µM	10.9 µM	31.7 µM
O=C(Nc1ccc(I)cc1F)c1cc(Br)ccc1O	2.19 µM	5.5 µM	0.411 µM	1.96 µM	0.162	0.516 µM	0.474	2.75 µM	0.472	3.34 µM	1.77	7.13 µM	0.583	3.74 µM	0.41	> 100 µM	0.564 µM	> 100 µM	0.346 µM	2.24 µM
